Data set [1] concerns metastatic prostate cancer. The note with it: cited from earlier work.
For data set [2] the following is noted: rodents; cited from earlier work.
In data set [3] the test system is metastasis in the 10th dorsal vertebra from a breast tumor. Briefly: Example 14: intratumoural injection into vertebral metastasis. Format: in vivo, human. Particulars: on the next day; 20 mg as SLN in 1 ml poly(orthoesther) paste. As for the experimental part: A person presents with metastases originating from a breast tumor operated and irradiated 3 years before. […] The patient is young and one wants to keep radiotherapy for further recurrences. They benefit from an intratumoural injection of 1 ml of polymeric paste (poly(orthoesther)), containing 20 mg of Antimycin A formulated as SLN. The paste is deposited in the center of the metastasis under fluoroscopy control. The pain drops on the next day by ⅔. […] This allows to visualize the elution rate and the melting process of the polymer, and to better follow and understand the kinetics of the treatment.
At 3 weeks the polymer has nearly totally disappeared, and the patient is sent for the injection of a cement (methylmethacrylate) inside the vertebra, under fluoroscopy. The pain disappears totally and the patient is followed up locally, ready to be treated when new metastases appear.

Another data set relates to meningioma. Briefly: Example 16: stereotactic injection into meningioma. Format: in vivo, human.
For data set [4], the system named is right axillar lymphnode (recurrence of melanoma). Briefly: Example 11: slow release injection into melanoma axillar lymphnode. Format: in vivo, human.
The next data set concerns right breast tumor. Briefly: Example 12: rods implanted in breast tumor. In kind it is in vivo, human.
Data set [5] relates to lymphnode in the left cervical area (tonsillar carcinoma). In words: Example 13: rods implanted in cervical lymphnode. In kind it is in vivo, human. As for the experimental part: A patient presents with a 10 cm diameter lymphnode located in the left cervical area. […] The patient refuses any kind of prolonged therapy. They accept a tumour implantation of a slow release drug. Fourteen 7 cm long rods of lactide-capronolactone containing rotenone, are implanted. The total dose of rotenone delivered over 2 weeks by the rods is 60 mg. […] The patient accepts radiation therapy.

Data set [6] relates to metastatic prostate cancer. Briefly: Phase I clinical trial of Rhodamine 123 intra-venous infusions. Format: in vivo, human. Particulars: for a 70 kg patient. On the procedure: The Huntington Medical Research Institutes are addressing this issue in metastatic prostate cancer (Lawrence W. Jones, M. D. Huntington Memorial Hospital). Recently this institute published the results of a clinical trial where 33 patients with metastatic prostate cancer were treated with Rhodamine 123 intra-venous infusions.
Because inhibitors of oxidative phorphorylation are extremely toxic to a subject in the doses needed for efficacy via the systemic route, such inhibitors have been largely overlooked for effective treatment of conditions such as cancer. […] It is also known that the maximal tolerated dose of Rhodamine 123 delivered intra-venously in man is 95 mg/m^2. For a 70 kg patient, the maximum dose of systemically delivered rhodamine is about 150 mg. […] There was an accumulation of rhodamine in the prostate of the patients, but it was not sufficient to provoke a significant response.

For the next data set, the system named is tumour. Briefly: Rhodamine delivered directly in the tumour (slow release). Format: in vivo. Particulars: 40 or 50 mg directly in the tumour. An excerpt: By locally delivering oxidative phosphorylation inhibitors into proliferating cells in a slow release formulation, the delivery period is prolonged i.e. the inhibitors are not cleared by the liver, and the dose received by the tumour is effectively higher than using systemic delivery. Furthemore, the lethal dose can be greatly exceeded. […] Such a dose, delivered systemically, would require 100 g of rhodamine, more than 1000 times the lethal dose. Thus, a composition comprising an oxidative phorphosrylation inhibitor in a slow release formulation increases the effective dose to the tumour and permits greater than lethal dosing.

Consider rhodamine 123, for which the tumour response entry in data set [1] (33 patients with metastatic prostate cancer, intra-venous infusions) is listed as “no significant tumour response”. For the same compound, the PSA change result in [1] (33 patients with metastatic prostate cancer, intra-venous infusions, in some cases) is reported as “slight PSA reduction”. The maximal tolerated dose in [1] (delivered intra-venously in man) is recorded as 95 mg/m^2. Also, in data set [2], the “LD10 (the dose which kills 10% of animals)” value is 20 mg/kg.

As to Antimycin A, the drop of pain entry in data set [3] is given as “⅔”.

Take `O=C(O)CF` [fluoroacetate]: the “lesion finding on MRI” value in the data set with meningioma (MRI two months after 4 mg in poly(ortho)ester) is recorded as “partial necrosis”. The “tumour necrosis on histological examination” value with meningioma (after surgical intervention) is 80%. The lesion size in the data set with meningioma (initially 3 cm, MRI two months after 4 mg in poly(ortho)ester) is recorded as 2.5 cm. The remaining induration size in data set [4] (6 months later, after additional 6 sessions of radiotherapy at 5 Gy) is recorded as 1 cm. In [4] (initially 5 cm, 1 month after 4 mg fluoroacetate slow release), this compound returned a lymphnode size of 3 cm.

Turning to sodium arsenate, the tumor diameter is listed as 3 cm in the data set on right breast tumor (after second session, 3 rods, total dose 30 mg) and 4 cm with right breast tumor (initially 6 cm, 2 months after four rods with 10 mg each).

As to `C=C(C)[C@H]1Cc2c(ccc3c2O[C@@H]2COc4cc(OC)c(OC)cc4[C@@H]2C3=O)O1` [rotenone], the mass size in data set [5] (initially 10 cm, 6 weeks after rods delivering 60 mg over 2 weeks) turned out to be 5.5 cm. The lymphnode outcome in data set [5] (new implantation with 30 mg plus radiation dose of 50 Gy) is given as “totally disappears”.

With rhodamine, the “maximum dose of systemically delivered rhodamine” value in [6] was “about 150 mg”. Also, in the data set with tumour, the tumour outcome is “tumour death”. The “effect on prostate tumours” value in data set [1] (systemic, at the maximum non-lethal dose) is “no useful effect”.

(Values after US20070254037A1 (priority 2004, published 2007).)
